Literature values as cited in US20020010202A1, “Combinations of prostaglandins and brimonidine or derivatives thereof” (Allergan Sales, Inc., priority 1994, published 2002).

What was measured:
[1] = in vivo
[2] = pressure rise with microkeratomes in LASIK
[3] = adjunctive to timolol in patients; statistically significant

Structure (SMILES)	neuroprotection in the eye [1]	nerve fiber thinning [2]	IOP-lowering effect [3]	adverse effects (in vivo)	duration of IOP decrease (in vivo)	mean decrease in IOP (topically active carbonic anhydrase inhibitor)
CC(C)(C)NC[C@H](O)COc1nsnc1N1CCOCC1 [timolol, (S)-1-tert-Butylamino-3-[(4-morpholino-1,2,5-thiadiazol-3-yl)oxy]-2-propanol]	did not exhibit neuroprotection	–	–	–	–	–
Brc1c(NC2=NCCN2)ccc2nccnc12 [Brimonidine]	exhibited neuroprotective effects in the eye	lessened or totally prevented	about 20%	–	–	–
CCN[C@H]1C[C@H](C)S(=O)(=O)c2sc(S(N)(=O)=O)cc21 [MK 507]	–	–	–	blanching of the conjunctiva, minimal mydriasis and eyelid retraction	≤ 12 h	25%
